The term DC50 denotes the concentration giving 50% degradation. A higher DC50 goes with degradation only at high concentration. What is called Dmax is the greatest extent of degradation seen.

SMILES strings stand for the structures. Read-outs that look alike come from different tables or passages of the source.

The target of this assay is HiBiT tagged Wee1 (Homo sapiens, UniProt P30291). Put plainly: Wee1 protein degradation assay (HiBiT assay). The settings on record: for Dmax: maximum percentage of Wee1 degradation, read-out: HiBiT Wee1: Dmax. Format: cell-based. (In general: HiBiT is a short tag that completes a luciferase, so light tracks the accessible tagged protein.)
Sequence of HiBiT tagged Wee1 (P30291 whole entry): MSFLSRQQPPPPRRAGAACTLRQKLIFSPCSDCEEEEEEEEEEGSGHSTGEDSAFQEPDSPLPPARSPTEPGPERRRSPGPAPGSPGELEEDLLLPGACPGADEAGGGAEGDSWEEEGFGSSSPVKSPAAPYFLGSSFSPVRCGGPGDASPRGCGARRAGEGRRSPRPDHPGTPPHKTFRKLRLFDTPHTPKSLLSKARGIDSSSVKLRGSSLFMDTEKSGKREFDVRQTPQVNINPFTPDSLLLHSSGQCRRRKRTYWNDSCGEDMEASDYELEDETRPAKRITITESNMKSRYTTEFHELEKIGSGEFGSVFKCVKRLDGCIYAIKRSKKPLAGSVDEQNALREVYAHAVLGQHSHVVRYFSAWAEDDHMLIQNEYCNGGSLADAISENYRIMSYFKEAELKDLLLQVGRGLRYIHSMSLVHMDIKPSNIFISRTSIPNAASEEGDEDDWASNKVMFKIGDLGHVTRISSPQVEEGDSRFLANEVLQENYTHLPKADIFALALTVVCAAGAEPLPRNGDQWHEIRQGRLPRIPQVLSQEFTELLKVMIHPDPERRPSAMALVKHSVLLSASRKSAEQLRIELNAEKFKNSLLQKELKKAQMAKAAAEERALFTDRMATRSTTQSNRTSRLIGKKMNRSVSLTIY
Where [1] appears, read: engineered HT-1080 cells, 20 hours.

For the molecule `C=CCn1c(=O)c2cnc(Nc3ccc(N4CCN(C5CCN(c6ccc(NC7CCC(=O)NC7=O)cc6F)CC5)[C@H](C)C4)cc3)nc2n1-c1ccc2c(n1)[C@@](O)(CC)CC2` (stereo partly shown) [Compound 186], under setting [1], the DC50 is less than 100 nM and the Dmax was more than 75%.

For the molecule `C=CCn1c(=O)c2cnc(Nc3ccc(N4CCC(CN5CCN(c6ccc7c(N8CCC(=O)NC8=O)nn(C)c7c6)CC5)CC4)c(C)c3)nc2n1-c1ccc2c(n1)[C@@](O)(CC)CC2` [Compound 135], under setting [1], the half-maximal degradation concentration (DC50) is less than 100 nM and the Dmax was more than 75%.

In the case of `C=CCn1c(=O)c2cnc(Nc3ccc(N4CCN(CC5CCN(c6ccc(NC7CCC(=O)NC7=O)cc6F)CC5)[C@H](COC)C4)cc3)nc2n1-c1ccc2c(n1)[C@@](O)(CC)CC2` (stereo partly shown) [Compound 206], under setting [1], the DC50 was less than 100 nM and the maximal degradation (Dmax) is more than 75%.

Turning to `C=CCn1c(=O)c2cnc(Nc3ccc(N4CCN(CC5CCN(c6c(F)cc(NC7CCC(=O)NC7=O)cc6F)CC5)CC4)cc3)nc2n1-c1ccc2c(n1)[C@@](O)(CC)CC2` (stereo partly shown) [Compound 175], under setting [1], the half-maximal degradation concentration (DC50) is less than 100 nM and the Dmax is more than 75%.

For the molecule `C=CCn1c(=O)c2cnc(Nc3ccc(N4CCN(CC5CCN(c6ccc(NC7CCC(=O)NC7=O)cc6F)CC5)CC4)c(Cl)c3)nc2n1-c1ccc2c(n1)[C@@](O)(CC)CC2` (stereo partly shown) [Compound 167], under setting [1], the half-maximal degradation concentration (DC50) is less than 100 nM and the Dmax is more than 75%.

With `C=CCn1c(=O)c2cnc(Nc3ccc(N4CCC(CN5CCN(c6cc7c(cc6F)c(N6CCC(=O)NC6=O)nn7C)CC5)CC4)cc3)nc2n1-c1ccc2c(n1)[C@@](O)(CC)CC2` [Compound 201], under setting [1], the half-maximal degradation concentration (DC50) is less than 100 nM and the Dmax was more than 75%.

As to `C=CCn1c(=O)c2cnc(Nc3ccc(C4CCN(C5CN(c6ccc(NC7CCC(=O)NC7=O)cc6F)C5)CC4)cc3)nc2n1-c1cccc(C(C)(C)O)n1` (stereo not shown) [Compound 148], under setting [1], the 50% degradation concentration (DC50) was less than 100 nM and the Dmax was more than 75%.

With `C=CCn1c(=O)c2cnc(Nc3ccc(N4CCN(C[C@@H]5CCN(c6ccc7c(c6)C(=O)N(C6CCC(=O)NC6=O)C7=O)C5)CC4)cc3)nc2n1-c1cccc(C(C)(C)O)n1` (stereo partly shown) [Compound 38], under setting [1], the 50% degradation concentration (DC50) is less than 100 nM and the Dmax was 50 to 75%.

As for `C=CCn1c(=O)c2cnc(Nc3ccc(N4CCC(CN5CCC(c6cccc(NC7CCC(=O)NC7=O)c6)CC5)CC4)cc3)nc2n1-c1cccc(C(C)(C)O)n1` (stereo not shown) [Compound 145], under setting [1], the half-maximal degradation concentration (DC50) fell in the range of 100 to 1000 nM and the Dmax is 50 to 75%.

For the molecule `C=CCn1c(=O)c2cnc(Nc3ccc(N4CCN(CC5CCN(c6ccc(NC7CCC(=O)NC7=O)cc6F)CC5)CC4)cc3)nc2n1-c1ccc2c(n1)[C@@](C)(O)CCC2` (single isomer, unassigned) [Compound 191], under setting [1], the DC50 was less than 100 nM and the Dmax is more than 75%.

With `C=CCn1c(=O)c2cnc(Nc3ccc(N4CCC(N5CC[C@H](c6ccc(NC7CCC(=O)NC7=O)cc6F)C(F)(F)C5)CC4)cc3)nc2n1-c1ccc2c(n1)[C@@](O)(CC)CC2` (single isomer, unassigned) [Compound 183], under setting [1], the half-maximal degradation concentration (DC50) is less than 100 nM and the greatest degradation seen (Dmax) was more than 75%.

With `C=CCn1c(=O)c2cnc(Nc3ccc(N4CCN(CC5CCN(c6cccc7c(N8CCC(=O)NC8=O)nn(C)c67)CC5)CC4)cc3)nc2n1-c1cccc(C(C)(C)O)n1` [Compound 143], under setting [1], the half-maximal degradation concentration (DC50) is less than 100 nM and the Dmax lay in the range of 50 to 75%.

With `C=CCn1c(=O)c2cnc(Nc3ccc(N4CCC(N5CCN(c6cccc7c6n(C)c(=O)n7C6CCC(=O)NC6=O)CC5)CC4)cc3)nc2n1-c1cccc(C(C)(C)O)n1` (stereo not shown) [Compound 68], under setting [1], the 50% degradation concentration (DC50) was less than 100 nM and the greatest degradation seen (Dmax) was in the range of 50 to 75%.

Consider `C=CCn1c(=O)c2cnc(Nc3ccc(N4CCN(CCOc5ccc6c(c5)C(=O)N(C5CCC(=O)NC5=O)C6=O)CC4)cc3)nc2n1-c1cccc(C(C)(C)O)n1` (stereo not shown) [Compound 63], for which, under setting [1], the 50% degradation concentration (DC50) was less than 100 nM and the maximal degradation (Dmax) lay within 50 to 75%.

As for `C=CCn1c(=O)c2cnc(Nc3ccc(C4CCN(CC5CCN(c6ccc(NC7CCC(=O)NC7=O)cc6F)CC5)CC4)cc3)nc2n1-c1cccc(C(C)(C)O)n1` (stereo not shown) [Compound 73], under setting [1], the DC50 was less than 100 nM and the Dmax is more than 75%.

On to `C=CCn1c(=O)c2cnc(Nc3ccc(C4CCN(C5CCN(c6ccc7c(c6)C(=O)N(C6CCC(=O)NC6=O)C7=O)C5)CC4)cc3)nc2n1-c1cccc(C(C)(C)O)n1` (stereo not shown) [Compound 39], for which, under setting [1], the DC50 was in the range of 100 to 1000 nM and the maximal degradation (Dmax) was 50 to 75%.

Take `C=CCn1c(=O)c2cnc(Nc3ccc(N4CCN(C[C@@H]5CCN(c6ccc(NC7CCC(=O)NC7=O)cc6F)C5)CC4)cc3)nc2n1-c1cccc(C(C)(C)O)n1` (stereo partly shown) [Compound 139]: under setting [1], the DC50 is less than 100 nM and the greatest degradation seen (Dmax) was more than 75%.

Take `C=CCn1c(=O)c2cnc(Nc3ccc(C4CCN(C5CCN(c6cc7c(cc6F)C(=O)N(C6CCC(=O)NC6=O)C7=O)CC5)CC4)cc3)nc2n1-c1cccc(C(C)(C)O)n1` (stereo not shown) [Compound 44]: under setting [1], the DC50 is less than 100 nM and the Dmax fell in the range of 50 to 75%.

With `C=CCn1c(=O)c2cnc(Nc3ccc(C4CCN(CC5CCN(c6ccc(C(=O)NC7CCC(=O)NC7=O)nc6)CC5)CC4)cc3)nc2n1-c1cccc(C(C)(C)O)n1` (stereo not shown) [Compound 35], under setting [1], the DC50 is more than 1000 nM and the maximal degradation (Dmax) was less than 50%.

For the molecule `C=CCn1c(=O)c2cnc(Nc3ccc(N4CCC(CN5CCC(c6ccc7c(N8CCC(=O)NC8=O)nn(C)c7c6)C(F)(F)C5)CC4)cc3)nc2n1-c1ccc2c(n1)[C@@](O)(CC)CC2` (stereo partly shown) [Compound 160], under setting [1], the 50% degradation concentration (DC50) was less than 100 nM and the Dmax fell in the range of 50 to 75%.

For `C=CCn1c(=O)c2cnc(Nc3ccc(N4CCC(CN5CCN(c6ccc(NC7CCC(=O)NC7=O)cc6F)CC5)CC4)c(C)c3)nc2n1-c1ccc2c(n1)[C@@](O)(CC)CC2` (stereo partly shown) [Compound 134], under setting [1], the DC50 was less than 100 nM and the Dmax is more than 75%.

As to `C=CCn1c(=O)c2cnc(Nc3ccc(N4CCC(CN5CCN(c6cccc7c6n(C)c(=O)n7C6CCC(=O)NC6=O)CC5)CC4)cc3)nc2n1-c1cccc(C(C)(C)O)n1` (stereo not shown) [Compound 90], under setting [1], the half-maximal degradation concentration (DC50) was less than 100 nM and the greatest degradation seen (Dmax) was more than 75%.

For `C=CCn1c(=O)c2cnc(Nc3ccc(N4CCN(CCCOc5ccc6c(c5)C(=O)N(C5CCC(=O)NC5=O)C6=O)CC4)cc3)nc2n1-c1cccc(C(C)(C)O)n1` (stereo not shown) [Compound 62], under setting [1], the DC50 was less than 100 nM and the Dmax was more than 75%.

`O=C1CCC(N2C(=O)c3ccc(N4CCC(CCN5CCC(c6ccc(Nc7ncc8c(=O)n(-c9c(Cl)cccc9Cl)c9nccn9c8n7)cc6)CC5)CC4)cc3C2=O)C(=O)N1` (stereo not shown) [Compound 15]: under setting [1], the half-maximal degradation concentration (DC50) lay in the range of 100 to 1000 nM and the maximal degradation (Dmax) was in the range of 50 to 75%.

`C=CCn1c(=O)c2cnc(Nc3ccc(C4CCN(C5CN(c6ccc7c(c6)C(=O)N(C6CCC(=O)NC6=O)C7=O)C5)CC4)cc3)nc2n1-c1cccc(C(C)(C)O)n1` (stereo not shown) [Compound 43]: under setting [1], the 50% degradation concentration (DC50) is less than 100 nM and the maximal degradation (Dmax) was more than 75%.

As to `C=CCn1c(=O)c2cnc(Nc3ccc(N4CCC(CN5CCN(c6ccc(NC7CCC(=O)NC7=O)cc6Cl)CC5)CC4)cc3)nc2n1-c1cccc(C(C)(C)O)n1` (stereo not shown) [Compound 147], under setting [1], the DC50 was less than 100 nM and the Dmax is more than 75%.

Consider `C=CCn1c(=O)c2cnc(Nc3ccc(N4CCN(CC5CCN(c6cc(OC)c(NC7CCC(=O)NC7=O)cc6F)CC5)CC4)cc3)nc2n1-c1ccc2c(n1)[C@@](O)(CC)CC2` (stereo partly shown) [Compound 177], for which, under setting [1], the DC50 is less than 100 nM and the Dmax was more than 75%.

As to `COc1ccc(C(=O)N2CCC(CN3CCN(Cc4ccc(Nc5ncc6c(=O)n(-c7c(Cl)cccc7Cl)c7nccn7c6n5)cc4)CC3)CC2)cc1N1CCC(=O)NC1=O` [Compound 58], under setting [1], the 50% degradation concentration (DC50) was more than 1000 nM and the maximal degradation (Dmax) was less than 50%.

Take `COc1ccc(C(=O)N2CCC(CCN3CCC(c4ccc(Nc5ncc6c(=O)n(-c7c(Cl)cccc7Cl)c7nccn7c6n5)cc4)CC3)CC2)cc1N1CCC(=O)NC1=O` [Compound 28]: under setting [1], the DC50 is more than 1000 nM and the Dmax lay within 50 to 75%.

In the case of `Cc1cc(Nc2ncc3c(n2)N(C)CN(c2c(Cl)cccc2Cl)C3=O)ccc1N1CCC(CN2CCC(c3ccc4c(c3)C(=O)N(C3CCC(=O)NC3=O)C4=O)CC2)CC1` (stereo not shown) [Compound 33], under “HT-1080, […]”, the maximal degradation (Dmax) was less than 50%. This molecule registered a DC50 under setting [1] of more than 1000 nM.

Consider `C=CCn1c(=O)c2cnc(Nc3ccc(N4CCC(CN5CCN(c6cccc7c(N8CCC(=O)NC8=O)nn(C)c67)CC5)CC4)cc3)nc2n1-c1cccc(C(C)(C)O)n1` [Compound 118], for which, under setting [1], the DC50 lay within 100 to 1000 nM and the Dmax is 50 to 75%.

For `C=CCn1c(=O)c2cnc(Nc3ccc(N4CCC(CN5CCN(c6ccc(NC7CCC(=O)NC7=O)cc6F)CC5)CC4)c(C)c3)nc2n1-c1ccc2c(n1)[C@](C)(O)CC2` (stereo partly shown) [Compound 132], under setting [1], the half-maximal degradation concentration (DC50) was less than 100 nM and the Dmax is more than 75%.

With `Cc1cc(Nc2ncc3c(n2)N(C)CN(c2c(Cl)cccc2Cl)C3=O)ccc1C1CCN(CC2CCN(c3cccc4c3C(=O)N(C3CCC(=O)NC3=O)C4=O)CC2)CC1` (stereo not shown) [Compound 19], under setting [1], the 50% degradation concentration (DC50) was more than 1000 nM and the greatest degradation seen (Dmax) was less than 50%.

On to `C=CCn1c(=O)c2cnc(Nc3ccc(N4CCC(CN5CCN(c6ccc(OC7CCC(=O)NC7=O)cc6F)CC5)CC4)cc3)nc2n1-c1cccc(C(C)(C)O)n1` (stereo not shown) [Compound 149], for which, under setting [1], the DC50 is less than 100 nM and the greatest degradation seen (Dmax) is more than 75%.

For the molecule `CN1CN(c2c(Cl)cccc2Cl)C(=O)c2cnc(Nc3ccc4c(c3)CN(CC3CN(c5ccc6c(c5)C(=O)N(C5CCC(=O)NC5=O)C6=O)C3)CC4)nc21` (stereo not shown) [Compound 20], under setting [1], the half-maximal degradation concentration (DC50) is more than 1000 nM and the Dmax was less than 50%.

Consider `C=CCn1c(=O)c2cnc(Nc3ccc(N4CCN(CC5CCN(c6ccc(NC7CCC(=O)NC7=O)cc6F)CC5)CC4)c(C)c3)nc2n1-c1ccc2c(n1)[C@@](C)(O)CC2` (stereo partly shown) [Compound 131], for which, under setting [1], the DC50 is less than 100 nM and the Dmax was more than 75%.

As for `O=C1CCC(N2C(=O)c3ccc(N4CC(CN5CCC(c6ccc(Nc7ncc8c(=O)n(-c9c(Cl)cccc9Cl)c9nccn9c8n7)cc6)CC5)C4)cc3C2=O)C(=O)N1` (stereo not shown) [Compound 13], under setting [1], the 50% degradation concentration (DC50) was less than 100 nM and the Dmax lay in the range of 50 to 75%.

With `C[C@@]1(O)CC/C=C\Cn2c(=O)c3cnc(Nc4ccc(N5CCN(CC6CCN(c7ccc(NC8CCC(=O)NC8=O)cc7F)CC6)CC5)cc4)nc3n2-c2cccc1n2` (single isomer, unassigned) [Compound 142], under setting [1], the DC50 is less than 100 nM and the Dmax was 50 to 75%.
